Experimental data taken from patent US20110160222A1, “MODULATORS OF GLUCOSE HOMEOSTASIS FOR THE TREATMENT OF DIABETES AND METABOLIC DISORDERS” (Metabolex, Inc., priority 2008, published 2011).

Biological target: T1, GPR119 (Homo sapiens, UniProt Q8TDV5)
T1 construct: expressed in transfected cells
T1 sequence (Q8TDV5 1-335): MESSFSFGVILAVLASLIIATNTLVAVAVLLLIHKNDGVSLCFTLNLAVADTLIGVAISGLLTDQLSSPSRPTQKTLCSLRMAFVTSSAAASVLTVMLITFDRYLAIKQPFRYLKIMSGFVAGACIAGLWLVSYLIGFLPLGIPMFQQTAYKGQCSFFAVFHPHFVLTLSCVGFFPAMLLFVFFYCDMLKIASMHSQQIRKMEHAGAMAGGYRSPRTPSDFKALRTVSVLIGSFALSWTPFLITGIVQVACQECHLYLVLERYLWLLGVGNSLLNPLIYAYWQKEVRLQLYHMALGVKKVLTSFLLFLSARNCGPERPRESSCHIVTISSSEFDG
Assay: Stimulation of cAMP in CHO cells stably expressing GPR119 (HTRF/FRET cAMP immunoassay)
Format: cell-based
Details: 3 μM compound, 30 min, relative to maximal activity (=100%) of reference agonist 4-(4-{4-Nitro-3-[4-(pyridin-2-ylsulfanyl)-piperidin-1-yl]-phenoxy}-phenyl)-butan-2-one or 4-[6-(4-Methanesulfonyl-phenyl-amino)-5-nitro-pyrimidin-4-yl-oxy]-piperidine-1-carboxylic acid tert-butyl ester
Experimental: This assay was developed using a stable cell line expressing GPR119, generated as follows. GPR119 (co-pending, co-owned patent application U.S. Ser. No. 11/964,461) was cloned into Gateway pDEST 40vector (Invitrogen), using the Gateway cloning system (invitrogen) according to the manufacturer's instructions. A stable cell line was generated by transfecting a 10 cm plate of CHO cells (source) with 8 μg of this construct using Transit-CHO transfection kit (Mirus). CHO cells were plated the day prior to transfection at a density of 3,000,000 cells/plate. Clones were selected using the antibiotic G418 at 500 μg/mL. 23 clones were picked and assayed for the expression of the receptor by measuring changes in intracellular cAMP levels in response to a known GPR119 agonist.
To measure cAMP activity in response to GPR119 agonist, the clones were plated in 96 well plates at 17500 cells per well. On the day after plating, cells were incubated with the GPR119 agonist at 10 μM for 30 minutes in Ham's F12 Media (Gibco) with 0.04% DMSO. cAMP was measured using the cAMP dynamic kit from C is Bio (Bedford, Mass.) according to the manufacturer's instructions. Briefly, cells were lysed, and cAMP levels determined by competitive immunoassay using D2 labeled cAMP, and europium cryptate tagged anti cAMP antibody. When in close proximity, the D2 and europium cryptate undergo fluorescence resonance energy transfer (FRET), which is measured as a fluorescence ratio (665 nm/620 nm). Unlabelled cAMP in the cell lysate competed with the D2 labeled cAMP for the europium crypate labeled antibody. The resulting decrease in FRET signal corresponded to intracellular cAMP levels. Fluorescence was read on a BMG Labtech PHERAstar, software version 1.50.
The clone with the greatest response to IC-GPCR2 agonist was selected for the screening assay.
Compounds were dissolved in 100% DMSO to a concentration of […] to provide stock solutions. To determine activity against GPR119, compounds were incubated with GPR119 stably expressing cells (described above), at 6-8 concentrations ranging from 0.00003 to 10 micromolar, in 96 well plates, in 50 μl of Ham's F12 media for 30 minutes. Cells were plated at 17500 cells per well 1 day before running the assay. All compounds were also screened against the parental CHO cells. cAMP was measured using the cAMP dynamic kit from C is Bio (Bedford, Mass.), according to the manufacturer's instructions. Briefly, cells were lysed and cAMP levels determined by competitive immunoassay using D2 labeled cAMP, and europium cryptate tagged anti cAMP antibody. When in close proximity, the D2 and europium cryptate undergo fluorescence resonance energy transfer (FRET), which is measured as a fluorescence ratio (665 nm/620 nm). Unlabelled cAMP in the cell lysate competed with the D2 labeled cAMP for the europium crypate labeled antibody. The resulting decrease in FRET signal corresponded to intracellular cAMP levels.
To determine percent activity for a tested compound, the FRET signal value obtained at a particular concentration are compared to the Maximal FRET signal value obtained for 4-(4-{4-Nitro-3-[4-(pyridin-2-ylsulfanyl)-piperidin-1-yl]-phenoxy}-phenyl)-butan-2-one (WO 2004/076,413) or 4-[6-(4-Methanesulfonyl-phenyl-amino)-5-nitro-pyrimidin-4-yl-oxy]-piperidine-1-carboxylic acid tert-butyl ester (US 2005/070,562). The maximal activity of 4-(4-{4-Nitro-3-[4-(pyridin-2-ylsulfanyl)-piperidin-1-yl]-phenoxy}-phenyl)-butan-2-one or 4-[6-(4-Methanesulfonyl-phenyl-amino)-5-nitro-pyrimidin-4-yl-oxy]-piperidine-1-carboxylic acid tert-butyl ester is designated as 100% activity. Typically, the concentration 4-(4-{4-Nitro-3-[4-(pyridin-2-ylsulfanyl)-piperidin-1-yl]-phenoxy}-phenyl)-butan-2-one or 4-[6-(4-Methanesulfonyl-phenyl-amino)-5-nitro-pyrimidin-4-yl-oxy]-piperidine-1-carboxylic acid tert-butyl ester was approximately 10 μM. […]

| % Activity at 3 uM [%] | Structure (SMILES) |
| --- | --- |
| 2.07 | Cc1ccc(S(=O)(=O)N2CCC(n3ncc4c(Oc5ccc(S(C)(=O)=O)cc5)ncnc43)CC2)cc1 [Example 64, 4-(4-(methylsulfonyl)phenoxy)-1-(1-tosylpiperidin-4-yl)-1H-pyrazolo[3,4-d]pyrimidine] |
| 59.61 | CC(C)(C)OC(=O)N1CCC(Cn2ncc3c(Oc4ccc(S(C)(=O)=O)cc4)ncnc32)CC1 [Example 50, tert-butyl 4-((4-(4-(methylsulfonyl)phenoxy)-1H-pyrazolo[3,4-d]pyrimidin-1-yl)methyl)piperidine-1-carboxylate] |
| 1.95 | CN(c1ccc(S(C)(=O)=O)cc1)c1ncnc2c1nnn2C1CCN(C(=O)OC(C)(C)C)CC1 [Example 67, tert-butyl 4-(7-(methyl(4-(methylsulfonyl)phenyl)amino)-3H-[1,2,3]triazolo[4,5-d]pyrimidin-3-yl)piperidine-1-carboxylate] |
| 69.8 | COc1ccc(Oc2ncnc3c2cnn3C2CCN(C(=O)OC(C)(C)C)CC2)cc1 [Example 2, tert-butyl 4-(4-(4-methoxyphenoxy)-1H-pyrazolo[3,4-d]pyrimidin-1-yl)piperidine-1-carboxylate] |
| 51.02 | CC(C)CS(=O)(=O)N1CCC(n2ncc3c(Oc4ccc(S(C)(=O)=O)cc4)ncnc32)CC1 [Example 63, 1-(1-(isobutylsulfonyl)piperidin-4-yl)-4-(4-(methylsulfonyl)phenoxy)-1H-pyrazolo[3,4-d]pyrimidine] |
| 60.11 | CC(C)(C)OC(=O)N1CCC(n2ncc3c(Sc4ccc(S(C)(=O)=O)cc4)ncnc32)CC1 [Example 5, tert-butyl 4-(4-(4-(methylsulfonyl)phenylthio)-1H-pyrazolo[3,4-d]pyrimidin-1-yl)piperidine-1-carboxylate] |
| 59.01 | CC(C)(C)OC(=O)N1CCC(n2ncc3c(Oc4ccc(S(C)(=O)=O)cc4)ncnc32)CC1 [Example 1, tert-butyl 4-(4-(4-(methylsulfonyl)phenoxy)-1H-pyrazolo[3,4-d]pyrimidin-1-yl)piperidine-1-carboxylate] |
| 48.23 | CCOC(=O)N1CCC(n2nnc3c(Oc4ccc(S(C)(=O)=O)cc4)ncnc32)CC1 [Example 69, ethyl 4-(7-(4-(methylsulfonyl)phenoxy)-3H-[1,2,3]triazolo[4,5-d]pyrimidin-3-yl)piperidine-1-carboxylate] |
| 69.49 | CC(C)(C)OC(=O)N1CCC(n2ncc3c(Oc4ccc(-n5ccnc5)cc4)ncnc32)CC1 [Example 4, tert-butyl 4-(4-(4-(1H-imidazol-1-yl)phenoxy)-1H-pyrazolo[3,4-d]pyrimidin-1-yl)piperidine-1-carboxylate] |
| 67.37 | CC(C)(C)OC(=O)N1CCC(Cn2ncc3c(Oc4ccc(-n5cncn5)cc4)ncnc32)C1 (stereo not shown) [Example 62, tert-butyl 3-((4-(4-(1H-1,2,4-triazol-1-yl)phenoxy)-1H-pyrazolo[3,4-d]pyrimidin-1-yl)methyl)pyrrolidine-1-carboxylate] |
| 74.66 | CC(C)(C)OC(=O)N1CCC(Cn2ncc3c(Oc4ccc(S(C)(=O)=O)cc4)ncnc32)C1 (stereo not shown) [Example 61, tert-butyl 3-((4-(4-(methylsulfonyl)phenoxy)-1H-pyrazolo[3,4-d]pyrimidin-1-yl)methyl)pyrrolidine-1-carboxylate] |
| 56.96 | CC(C)(C)OC(=O)N1CCC(n2ncc3c(Oc4ccc(Oc5ccccc5)cc4)ncnc32)CC1 [Example 6, tert-butyl 4-(4-(4-phenoxyphenoxy)-1H-pyrazolo[3,4-d]pyrimidin-1-yl)piperidine-1-carboxylate] |
| 12.73 | CC(C)(C)OC(=O)N1CCC(n2ncc3c(Oc4ccc(Oc5ccc(C(F)(F)F)cc5)cc4)ncnc32)CC1 [Example 3, tert-butyl 4-(4-(4-(4-(trifluoromethyl)phenoxy)phenoxy)-1H-pyrazolo[3,4-d]pyrimidin-1-yl)piperidine-1-carboxylate] |
| 24.15 | CS(=O)(=O)c1ccc(Oc2ncnc3c2cnn3C2CCN(S(=O)(=O)Cc3ccccc3)CC2)cc1 [Example 65, 1-(1-(benzylsulfonyl)piperidin-4-yl)-4-(4-(methylsulfonyl)phenoxy)-1H-pyrazolo[3,4-d]pyrimidine] |
| 9.73 | CS(=O)(=O)c1ccc(Oc2ncnc3c2cnn3C2CCN(S(=O)(=O)C3CC3)CC2)cc1 [Example 66, 1-(1-(cyclopropylsulfonyl)piperidin-4-yl)-4-(4-(methylsulfonyl)phenoxy)-1H-pyrazolo[3,4-d]pyrimidine] |
| 59.01 | CC(C)(C)OC(=O)N1CCC(n2nnc3c(Oc4ccc(S(C)(=O)=O)cc4)ncnc32)CC1 [Example 68, tert-butyl 4-(7-(4-(methylsulfonyl)phenoxy)-3H-[1,2,3]triazolo[4,5-d]pyrimidin-3-yl)piperidine-1-carboxylate] |
